{"source": "patent US3959363A", "about": "“15-Ethynyl-PFG2β” (American Home Products Corporation, priority 1974, dated 1976)", "key": {"[1]": {"system": "bronchoconstricting effects of a standard dose of acetylcholine", "experiment": "Bronchodilation upon aerosol inhalation in the guinea pig (method of Rosenthale et al.): inhibition of acetylcholine bronchoconstriction", "format": "in vivo", "description": "In using the compounds of the invention to produce bronchodilating effects in warm-blooded animals, they may be administered in a variety of dosage forms: oral, injectable, and aerosol inhalation. Aerosol inhalation is a preferred method because of its rapid onset of action, great potency, and specificity of action. The particular dosage to obtain the bronchodilating effect will vary with the particular compound employed, the particular animal involved, and the degree of bronchodilation desired. In the guinea pig, by aerosol inhalation, the dose to produce bronchodilation is from about 0.015 micrograms to about 50 micrograms, and preferably from about 0.015 to about 25 micrograms. The bronchodilation produced upon aerosol inhalation can be observed by the method of Rosenthale et al., J. Pharmacol. Exp. Ther., 178, 541 (1971). Using this procedure the following result was obtained."}, "[2]": {"experiment": "Hypotensive effect in the anesthetized dog, intravenous route", "format": "in vivo", "details": "dose 100 μg/kg", "protocol": "In the use of the compounds of the invention to produce hypotensive effects in warm-blooded animals, administration by the injectable route is preferred, preferably the intravenous route.\nThus in the anesthetized dog by the intravenous route the dose to produce hypotension is from about 1 μg/kg. to about 200 μg/kg. and preferably from about 10 μg/kg. to about 100 μg/kg. Using this procedure the following results were obtained."}}}
{"molecule": "C#C[C@@](O)(/C=C/[C@@H]1[C@@H](C/C=C\\CCCC(=O)O)[C@H](O)C[C@H]1O)CCCCC", "note": "[7-(2β-[(3S)-3-Ethynyl-3-Hydroxy-Trans-1-Octenyl]-3α,5β-Dihydroxy-1α-cyclopentyl)-Cis-5-Heptenoic Acid]", "values": [{"measurement": "Percent Inhibition of the bronchoconstricting effects of a standard dose of acetylcholine", "setting": "[1]; dose 1.5 μg", "result": 64, "unit": "%"}, {"measurement": "Percent Inhibition of the bronchoconstricting effects of a standard dose of acetylcholine", "setting": "[1]; dose 15 μg", "result": 78, "unit": "%"}, {"measurement": "Δb.p.", "setting": "[2]", "result": -16, "unit": "mm. Hg"}]}
